Assay results as given in ChEMBL document CHEMBL4411306, “High-throughput screening of novel pyruvate dehydrogenase kinases inhibitors and biological evaluation of their in vitro and in vivo antiproliferative activity” (Eur J Med Chem, 2019).
The source made the active and inactive calls. The rule behind the calls is not given here.

Columns and labels:
[1] = Permeability across human Caco2 cells by liquid scintillation counting method; type: ADME, cell-based; details: caco-2
[2] = tested on: MCF7; test: Antiproliferative activity against human MCF7 cells assessed as reduction in cell viability after 72 hrs by MTT assay; type: functional
[3] = target: T1, [Pyruvate dehydrogenase (acetyl-transferring)] kinase isozyme 1, mitochondrial (Homo sapiens, UniProt Q15118); test: Inhibition of PDK1 in human NCI-H1975 cells assessed as switch of pyruvate metabolism from lactate production to oxidative phosphorylation by measuring increase in ROS production at high concentration after 4 hrs by DCFH-DA dye based assay; type: cell-based
[4] = tested on: NCI-H1975; test: Induction of apoptosis in human NCI-H1975 cells assessed as live cells at 10 uM after 12 hrs by Annexin V-FITC/propidium iodide staining based flow cytometry (reference value: 92.7%); type: functional
[5] = tested on: NCI-H1975; test: Inhibition of PDK in human NCI-H1975 cells assessed as reduction in PDH phosphorylation at 10 uM after 12 hrs by Western blot analysis; type: cell-based
[6] = tested on: NCI-H1975; test: Induction of apoptosis in human NCI-H1975 cells assessed as early apoptotic cells at 10 uM after 12 hrs by Annexin V-FITC/propidium iodide staining based flow cytometry (reference value: 1.8%); type: functional
[7] = tested on: NCI-H1975; test: Induction of apoptosis in human NCI-H1975 cells assessed as early apoptotic cells at 4 uM after 12 hrs by Annexin V-FITC/propidium iodide staining based flow cytometry (reference value: 1.8%); type: functional
[8] = target: T1, [Pyruvate dehydrogenase (acetyl-transferring)] kinase isozyme 1, mitochondrial; test: Binding affinity to recombinant human His-tagged PDK1 expressed in Escherichia coli by isothermal calorimetry
[9] = tested on: NCI-H1975; test: Antiproliferative activity against human NCI-H1975 cells assessed as reduction in cell viability after 72 hrs by MTT assay; type: functional
[10] = Antiproliferative activity against human BEAS2B cells assessed as reduction in cell viability after 72 hrs by MTT assay; type: cell-based; details: BEAS-2B cells, read-out: GC50
[11] = tested on: NCI-H1975; test: Induction of apoptosis in human NCI-H1975 cells assessed as live cells at 4 uM after 12 hrs by Annexin V-FITC/propidium iodide staining based flow cytometry (reference value: 92.7%); type: functional
[12] = tested on: NCI-H1975; test: Induction of apoptosis in human NCI-H1975 cells assessed as late apoptotic cells at 2 uM after 12 hrs by Annexin V-FITC/propidium iodide staining based flow cytometry (reference value: 3.7%); type: functional
[13] = tested on: Mus musculus; test: In-vivo of inhibition of PDH phosphorylation in tumor of nude mouse xenografted with human NCI-H1975 cells at 10 to 20 mg/kg, po administered once daily for 21 days measured post last dose by Western blot analysis; type: functional, organism-based
[14] = tested on: NCI-H1975; test: Induction of apoptosis in human NCI-H1975 cells assessed as necrotic cells at 4 uM after 12 hrs by Annexin V-FITC/propidium iodide staining based flow cytometry (reference value: 1.8%); type: functional
[15] = target: [Pyruvate dehydrogenase (acetyl-transferring)] kinase isozyme 4, mitochondrial (Homo sapiens, UniProt Q16654); test: Inhibition of recombinant human His-tagged PDK4 expressed in Escherichia coli using PDH E1 as substrate measured after 30 mins by Kinase-Glo luminescence assay
[16] = tested on: NCI-H1975; test: Induction of apoptosis in human NCI-H1975 cells assessed as late apoptotic cells at 0.5 uM after 12 hrs by Annexin V-FITC/propidium iodide staining based flow cytometry (reference value: 3.7%); type: functional
[17] = tested on: NCI-H1975; test: Induction of apoptosis in human NCI-H1975 cells assessed as early apoptotic cells at 2 uM after 12 hrs by Annexin V-FITC/propidium iodide staining based flow cytometry (reference value: 1.8%); type: functional
[18] = target: T1, [Pyruvate dehydrogenase (acetyl-transferring)] kinase isozyme 1, mitochondrial; test: Inhibition of PDK1 in human NCI-H1975 cells assessed as switch of pyruvate metabolism from lactate production to oxidative phosphorylation by measuring by measuring reduction in lactate formation at 10 uM measured after 4 hrs; type: cell-based
[19] = tested on: NCI-H1975; test: Induction of apoptosis in human NCI-H1975 cells assessed as live cells at 0.5 uM after 12 hrs by Annexin V-FITC/propidium iodide staining based flow cytometry (reference value: 92.7%); type: functional
[20] = tested on: NCI-H1975; test: Induction of apoptosis in human NCI-H1975 cells assessed as necrotic cells at 0.5 uM after 12 hrs by Annexin V-FITC/propidium iodide staining based flow cytometry (reference value: 1.8%); type: functional
[21] = tested on: NCI-H1975; test: Induction of apoptosis in human NCI-H1975 cells assessed as live cells at 2 uM after 12 hrs by Annexin V-FITC/propidium iodide staining based flow cytometry (reference value: 92.7%); type: functional
[22] = tested on: NCI-H1975; test: Induction of apoptosis in human NCI-H1975 cells assessed as necrotic cells at 2 uM after 12 hrs by Annexin V-FITC/propidium iodide staining based flow cytometry (reference value: 1.8%); type: functional
[23] = target: [Pyruvate dehydrogenase (acetyl-transferring)] kinase isozyme 3, mitochondrial (Homo sapiens, UniProt Q15120); test: Inhibition of recombinant human His-tagged PDK3 expressed in Escherichia coli using PDH E1 as substrate measured after 30 mins by Kinase-Glo luminescence assay
[24] = target: Heat shock protein HSP90 (Homo sapiens, UniProt P07900+P08238); test: Inhibition of human HSP90 measured after 30 mins by fluorescence polarization assay; type: protein assay
[25] = tested on: HCT-116; test: Antiproliferative activity against human HCT116 cells assessed as reduction in cell viability after 72 hrs by MTT assay; type: functional
[26] = Toxicity in nude mouse xenografted with human NCI-H1975 cells assessed as effect on body weight at 10 to 20 mg/kg, po administered once daily for 21 days measured twice weekly during compound dosing; type: organism-based; details: in vivo, 504 h
[27] = target: T2, [Pyruvate dehydrogenase (acetyl-transferring)] kinase isozyme 2, mitochondrial (Homo sapiens, UniProt Q15119); test: Inhibition of recombinant human His-tagged PDK2 expressed in Escherichia coli using PDH E1 as substrate measured after 30 mins by Kinase-Glo luminescence assay
[28] = tested on: A-375; test: Antiproliferative activity against human A375 cells assessed as reduction in cell viability after 72 hrs by MTT assay; type: functional
[29] = tested on: NCI-H1975; test: Induction of apoptosis in human NCI-H1975 cells assessed as necrotic cells at 10 uM after 12 hrs by Annexin V-FITC/propidium iodide staining based flow cytometry (reference value: 1.8%); type: functional
[30] = target: T1, [Pyruvate dehydrogenase (acetyl-transferring)] kinase isozyme 1, mitochondrial; test: Inhibition of PDK1 in human NCI-H1975 cells assessed as switch of pyruvate metabolism from lactate production to oxidative phosphorylation by measuring decrease in extracellular acidification rate at 1 to 10 uM measured after 4 hrs by XFe24 extracellular flux analyzer based assay; type: cell-based
[31] = tested on: NCI-H1975; test: Induction of apoptosis in human NCI-H1975 cells assessed as late apoptotic cells at 10 uM after 12 hrs by Annexin V-FITC/propidium iodide staining based flow cytometry (reference value: 3.7%); type: functional
[32] = tested on: NCI-H1975; test: Induction of apoptosis in human NCI-H1975 cells assessed as late apoptotic cells at 4 uM after 12 hrs by Annexin V-FITC/propidium iodide staining based flow cytometry (reference value: 3.7%); type: functional
[33] = target: T1, [Pyruvate dehydrogenase (acetyl-transferring)] kinase isozyme 1, mitochondrial; test: Inhibition of PDK1 in human NCI-H1975 cells assessed as switch of pyruvate metabolism from lactate production to oxidative phosphorylation by measuring increase in oxygen consumption rates at 1 to 10 uM measured after 4 hrs by XFe24 extracellular flux analyzer based assay; type: cell-based
[34] = tested on: HepG2; test: Antiproliferative activity against human HepG2 cells assessed as reduction in cell viability after 72 hrs by MTT assay; type: functional
[35] = Inhibition of porcine PDK assessed as activation of pyruvate dehydrogenase complex measured after 3 mins; set-up: species or system Sus scrofa
[36] = tested on: NCI-H1650; test: Antiproliferative activity against human NCI-H1650 cells assessed as reduction in cell viability after 72 hrs by MTT assay; type: functional
[37] = tested on: NCI-H1975; test: Antitumor activity against human NCI-H1975 cells xenografted in nude mouse assessed as tumor growth inhibition administered orally once daily for 21 days; type: functional, cell-based
[38] = tested on: NCI-H1975; test: Induction of apoptosis in human NCI-H1975 cells after 12 hrs by Annexin V-FITC/propidium iodide staining based flow cytometry; type: functional, cell-based
[39] = target: T1, [Pyruvate dehydrogenase (acetyl-transferring)] kinase isozyme 1, mitochondrial; test: Inhibition of recombinant human His-tagged PDK1 expressed in Escherichia coli using PDH E1 as substrate measured after 30 mins by Kinase-Glo luminescence assay
[40] = tested on: NCI-H1975; test: Antitumor activity against human NCI-H1975 cells xenografted in nude mouse assessed as reduction in tumor weight administered orally once daily for 21 days; type: functional, cell-based
[41] = tested on: A549; test: Antiproliferative activity against human A549 cells assessed as reduction in cell viability after 72 hrs by MTT assay; type: functional
[42] = tested on: NCI-H1975; test: Induction of apoptosis in human NCI-H1975 cells assessed as early apoptotic cells at 0.5 uM after 12 hrs by Annexin V-FITC/propidium iodide staining based flow cytometry (reference value: 1.8%); type: functional
[43] = target: T2, [Pyruvate dehydrogenase (acetyl-transferring)] kinase isozyme 2, mitochondrial; test: Inhibition of recombinant human His6-tagged N-terminal PDHK2 (A8 to T399 residues) expressed in baculovirus expression system using PDC as substrate incubated for 10 mins followed by ATP addition measured at 12 secs interval for 20 mins
[44] = target: T1, [Pyruvate dehydrogenase (acetyl-transferring)] kinase isozyme 1, mitochondrial; details: NCI-H1975, 10 mM
Description: Inhibition of PDK1 in human NCI-H1975 cells assessed as switch of pyruvate metabolism from lactate production to oxidative phosphorylation by measuring decrease in extracellular acidification rate at 10 mM measured after 4 hrs by XFe24 extracellular flux analyzer based assay

[45] = target: T1, [Pyruvate dehydrogenase (acetyl-transferring)] kinase isozyme 1, mitochondrial; details: NCI-H1975, 10 mM; remark: listed apart in the source
Description: Inhibition of PDK1 in human NCI-H1975 cells assessed as switch of pyruvate metabolism from lactate production to oxidative phosphorylation by measuring increase in oxygen consumption rates at 10 mM measured after 4 hrs by XFe24 extracellular flux analyzer based assay

[46] = target: T1, [Pyruvate dehydrogenase (acetyl-transferring)] kinase isozyme 1, mitochondrial; details: NCI-H1975, 10 mM; remark: listed apart in the source
Description: Inhibition of PDK1 in human NCI-H1975 cells assessed as switch of pyruvate metabolism from lactate production to oxidative phosphorylation by measuring by measuring reduction in lactate formation at 10 mM measured after 4 hrs

[47] = tested on: NCI-H1975; test: Inhibition of PDK in human NCI-H1975 cells assessed as reduction in PDH phosphorylation at Ser293 residue at 10 mM by ELISA; type: cell-based
[48] = tested on: NCI-H1975; test: Inhibition of PDK in human NCI-H1975 cells assessed as reduction in PDH phosphorylation at 10 mM after 12 hrs by Western blot analysis; type: cell-based
[49] = organism: Sus scrofa; test: Inhibition of porcine PDK assessed as activation of pyruvate dehydrogenase complex at 10 mM measured after 3 mins relative to control

T1 sequence (Q15118 whole entry): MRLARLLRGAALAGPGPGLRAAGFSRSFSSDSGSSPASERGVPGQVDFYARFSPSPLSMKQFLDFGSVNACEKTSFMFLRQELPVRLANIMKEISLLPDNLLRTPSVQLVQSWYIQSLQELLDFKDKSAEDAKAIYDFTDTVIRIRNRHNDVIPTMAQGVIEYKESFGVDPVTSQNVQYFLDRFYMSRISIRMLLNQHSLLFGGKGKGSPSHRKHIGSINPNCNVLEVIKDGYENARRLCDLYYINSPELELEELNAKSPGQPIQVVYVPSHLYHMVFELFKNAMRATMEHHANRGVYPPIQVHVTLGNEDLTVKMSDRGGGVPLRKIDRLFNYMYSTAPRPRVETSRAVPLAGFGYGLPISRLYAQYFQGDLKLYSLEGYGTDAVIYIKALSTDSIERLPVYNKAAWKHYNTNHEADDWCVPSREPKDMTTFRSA
Sequence of [Pyruvate dehydrogenase (acetyl-transferring)] kinase isozyme 4, mitochondrial (Q16654 whole entry): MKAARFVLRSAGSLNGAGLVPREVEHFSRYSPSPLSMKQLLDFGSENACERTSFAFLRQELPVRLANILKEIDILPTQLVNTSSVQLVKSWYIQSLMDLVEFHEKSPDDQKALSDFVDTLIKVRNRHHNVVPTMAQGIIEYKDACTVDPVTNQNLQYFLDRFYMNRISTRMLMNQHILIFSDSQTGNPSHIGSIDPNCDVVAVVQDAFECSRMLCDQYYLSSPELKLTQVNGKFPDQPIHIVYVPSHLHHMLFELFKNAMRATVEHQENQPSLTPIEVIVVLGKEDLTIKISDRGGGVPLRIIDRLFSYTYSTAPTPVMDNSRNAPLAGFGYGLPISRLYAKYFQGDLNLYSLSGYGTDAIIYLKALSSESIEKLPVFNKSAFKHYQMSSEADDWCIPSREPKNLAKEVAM
Sequence of [Pyruvate dehydrogenase (acetyl-transferring)] kinase isozyme 3, mitochondrial (Q15120 whole entry): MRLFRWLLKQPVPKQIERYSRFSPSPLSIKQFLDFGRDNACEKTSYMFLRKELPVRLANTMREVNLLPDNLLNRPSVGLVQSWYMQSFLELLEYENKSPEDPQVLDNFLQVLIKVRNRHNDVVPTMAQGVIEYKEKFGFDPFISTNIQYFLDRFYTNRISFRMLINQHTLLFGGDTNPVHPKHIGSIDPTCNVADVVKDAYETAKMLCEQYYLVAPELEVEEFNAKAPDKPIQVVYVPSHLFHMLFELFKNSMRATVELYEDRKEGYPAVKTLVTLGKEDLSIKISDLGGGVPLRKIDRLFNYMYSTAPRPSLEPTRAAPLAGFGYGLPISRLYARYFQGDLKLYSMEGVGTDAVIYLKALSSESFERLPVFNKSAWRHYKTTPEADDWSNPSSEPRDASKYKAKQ

SMILES: Cc1cccc(NC(=O)CSc2n[nH]c(-c3ccccc3O)n2)c1C
- Papp [1]: 8.51 ×10⁻⁶ cm/s
- Activity [2]: Dose-dependent effect
- GC50 [2]: 9500 nM
- inhibition [3]: Active
- Activity [4]: 73.4%
- reduction in PDH phosphorylation (qualitative) [5]: Active
- Activity [6]: 13.1%
- Activity [7]: 2.7%
- Kd [8]: 870 nM
- Activity [9]: Dose-dependent effect
- GC50 [9]: 2300 nM
- GI50 at 72 h [10]: > 20000 nM
- Activity [11]: 85.5%
- Activity [12]: 5%
- inhibition [13]: Active
- Activity [14]: 1.2%
- IC50 [15]: 2500 nM
- Activity [16]: 4.8%
- Activity [17]: 3.1%
- inhibition [18]: Active
- Activity [19]: 92.3%
- Activity [20]: 0.9%
- Activity [21]: 90.3%
- Activity [22]: 1.6%
- IC50 [23]: 5700 nM
- IC50 [24]: 780 nM
- Activity [25]: Dose-dependent effect
- GC50 [25]: 12700 nM
- Activity [26]: Non-Toxic
- IC50 [27]: 3800 nM
- Activity [28]: Dose-dependent effect
- GC50 [28]: 6400 nM
- Activity [29]: 2.4%
- inhibition [30]: Active
- Activity [31]: 11.1%
- Activity [32]: 10.6%
- inhibition [33]: Active
- Activity [34]: Dose-dependent effect
- GC50 [34]: 5200 nM
- EC50 [35]: 340 nM
- Activity [36]: Dose-dependent effect
- GC50 [36]: 3100 nM
- TGI [37]: Dose-dependent effect
- Activity [38]: Dose-dependent effect
- IC50 [39]: 290 nM
- Activity [40]: Dose-dependent effect
- Activity [41]: Dose-dependent effect
- GC50 [41]: 7900 nM
- Activity [42]: 2%

SMILES: CC(C)c1ccc(COc2ccc(CC(=O)NCCN)cc2Cl)cc1
- IC50 [43]: 2000 nM

SMILES: O=C(O)C(Cl)Cl [DICHLOROACETIC ACID]
- inhibition [44]: Active
- inhibition [45]: Active
- inhibition [46]: Active
- inhibition [47]: Active
- inhibition [48]: Active
- inhibition [49]: 54.8%
- EC50 [35]: > 100000 nM
